Data set [1] is described as follows: Cytotoxic MTS assay, whole panel of tested cell lines. The data set is classed as cell-based, human. As to conditions: human; MTS, 72 h of incubation, all tested cell lines; read-out: Cytotoxic activity IC50, tested cell lines (considered inactive). The protocol:
In vitro cytotoxic activity of final compounds 5–82 was evaluated after 3 days of incubation against eight cell lines derived from human solid tumors including lung (A549 cells) and colon (HCT116 and HCT116p53−/−) carcinomas, as well as leukemia cell lines (CCRF-CEM, CEM-DNR, K562, and K562-TAX) and osteosarcoma (U2OS cells). For comparison, non-malignant BJ and MRC-5 fibroblasts, and BJLD and MCR-5LD fibroblasts doxorubicin-resistant cell lines were used. Concentrations inhibiting the cell growth by 50% (IC50) were determined using a quantitative metabolic staining with 3-(4,5-dimethylthiazol-2yl)-5-(3-carboxymethoxyphenyl)-2-(4-sulfophenyl)-2H-tetrazolium (MTS) and are summarized in (Table 3).
Cytotoxic activity was determined by MTS assay following 72 h of incubation. IC50 is the lowest concentration that kills 50% of cells. The standard deviation in cytotoxicity assays is typically up to 20% of the average value. […] The tested cell lines: A549 (lung adenocarcinoma), BJ (noncancerous human fibroblasts from foreskin), BJLD (human lung fibroblast doxorubicin-resistant), CCRF-CEM (childhood T cell acute lymphoblastic leukemia), a daunorubicin-resistant subline of CCRF-CEM cells (CEM-DNR bulk), HCT116 (colorectal carcinoma), HCT116p53−/− (HCT116 with deleted p53 gene), K562 (chronic myeloid leukemia), K562-TAX (chronic myeloid leukemia paclitaxel-resistant subline), MRC-5 (noncancerous human lung fibroblasts), MRC-5LD (noncancerous human lung fibroblasts doxorubicin-resistant), and U2OS (osteosarcoma).
All cell lines were purchased from the American Tissue Culture Collection (ATCC). The A549 cell line is lung adenocarcinoma. MRC-5 and BJ cell lines were used as a non-tumor control and represent human fibroblasts. (MRC-5 LD and BJLD) are doxorubicin-resistant human lung fibroblast cell lines. The CCRF-CEM line is derived from T lymphoblastic leukemia, evincing high chemosensitivity, whereas K562 represent cells from an […] patient sample with bcr-abl translocation. The daunorubicin-resistant subline of CCRF-CEM cells (CEM-DNR bulk) and paclitaxel-resistant subline K562-TAX were selected in our laboratory by the cultivation of maternal cell lines in increasing concentrations of daunorubicin or paclitaxel, respectively. The CEM-DNR bulk cells overexpress MRP-1 and P-glycoprotein protein, whereas K562-TAX cells overexpress P-glycoprotein only. Both proteins belong to the family of ABC transporters and are involved in the primary and/or acquired multidrug-resistance phenomenon. The U2OS cell line is derived from osteosarcoma, HCT116 is a colorectal tumor cell line and its p53 gene knock-down counterpart (HCT116p53−/−, Horizon Discovery Ltd., Cambridge, UK) is a model of human cancers with p53 mutation frequently associated with poor prognosis. The cells were maintained in nunc/corning 80 cm^2 plastic tissue culture flasks and cultured in a cell culture medium according to ATCC or Horizon recommendations (DMEM/RPMI 1640 with 5 g/L glucose, 2 mM glutamine, 100 U/mL penicillin, […], 10% fetal calf serum, and NaHCO3).
The activity of compounds was determined using a standard 3-(4,5-dimethylthiazol-2-yl)-5-(3-carboxymethoxyphenyl)-2-(4-sulfophenyl)-2H-tetrazolium (MTS) and it was performed at the Institute of Molecular and Translational Medicine by a robotic platform (High-ResBiosolutions). Cell suspensions were prepared and diluted according to the particular cell type and the expected target cell density (25,000–35,000 cells/mL based on cell growth characteristics). Cells were added by automatic pipettor (30 µL) into 384-well microtiter plates. All tested compounds were dissolved in 100% DMSO and four-fold dilutions of the intended test concentration were added in 0.15 µL aliquots at time zero to the microtiter plate wells by the echo acoustic non-contact liquid handler Echo550 (Labcyte). […]

For `O=C(OCC[S+]([O-])c1ccnc2cc(Cl)ccc12)c1ccc(C(F)(F)F)cc1` (centres unmarked) [Compound 51, 2-[(7-Chloroquinolin-4-yl)sulfinyl]ethyl-4-(trifluoromethyl)benzoate], the melting point fell in the range of 148 to 150 °C. Besides, the IC50 at 72 h in data set [1] was over 50 µM. `CC(C)(C)c1ccc(C(=O)OCC[S+]([O-])c2ccnc3cc(Cl)ccc23)cc1` (centres unmarked) [Compound 52, 2-[(7-Chloroquinolin-4-yl)sulfinyl]ethyl-4-tert-butylbenzoate]: the melting point was 106 °C. For the same compound, the IC50 at 72 h in data set [1] is over 50 µM.

`COc1ccccc1C(=O)OCCC[S+]([O-])c1ccnc2cc(Cl)ccc12` (centres unmarked) [Compound 58, 3-[(7-Chloroquinolin-4-yl)sulfinyl]propyl-2-methoxybenzoate]: the IC50 at 72 h in data set [1] is over 50 µM.

The record behind these values is PMC9607427, “Novel 7-Chloro-(4-thioalkylquinoline) Derivatives: Synthesis and Antiproliferative Activity through Inducing Apoptosis and DNA/RNA Damage” (Pharmaceuticals, 2022).
